Measured values: US9828381B2, “Substituted pyrazolopyrimidines and method of use” (AbbVie Deutschland GmbH & Co. KG, priority 2015, dated 2017)

The molecules below were run against GABA-B receptor (Rattus norvegicus (Rat), UniProt O88871+Q9Z0U4) (assay: [35S]GTPgS binding assay, rat cortical membranes, in presence of EC25 GABA). Details: rat brain cortex membranes; in presence of 1 μM GABA (EC25); positive allosteric modulation.
GABA-B receptor, sequence (Q9Z0U4 17-960): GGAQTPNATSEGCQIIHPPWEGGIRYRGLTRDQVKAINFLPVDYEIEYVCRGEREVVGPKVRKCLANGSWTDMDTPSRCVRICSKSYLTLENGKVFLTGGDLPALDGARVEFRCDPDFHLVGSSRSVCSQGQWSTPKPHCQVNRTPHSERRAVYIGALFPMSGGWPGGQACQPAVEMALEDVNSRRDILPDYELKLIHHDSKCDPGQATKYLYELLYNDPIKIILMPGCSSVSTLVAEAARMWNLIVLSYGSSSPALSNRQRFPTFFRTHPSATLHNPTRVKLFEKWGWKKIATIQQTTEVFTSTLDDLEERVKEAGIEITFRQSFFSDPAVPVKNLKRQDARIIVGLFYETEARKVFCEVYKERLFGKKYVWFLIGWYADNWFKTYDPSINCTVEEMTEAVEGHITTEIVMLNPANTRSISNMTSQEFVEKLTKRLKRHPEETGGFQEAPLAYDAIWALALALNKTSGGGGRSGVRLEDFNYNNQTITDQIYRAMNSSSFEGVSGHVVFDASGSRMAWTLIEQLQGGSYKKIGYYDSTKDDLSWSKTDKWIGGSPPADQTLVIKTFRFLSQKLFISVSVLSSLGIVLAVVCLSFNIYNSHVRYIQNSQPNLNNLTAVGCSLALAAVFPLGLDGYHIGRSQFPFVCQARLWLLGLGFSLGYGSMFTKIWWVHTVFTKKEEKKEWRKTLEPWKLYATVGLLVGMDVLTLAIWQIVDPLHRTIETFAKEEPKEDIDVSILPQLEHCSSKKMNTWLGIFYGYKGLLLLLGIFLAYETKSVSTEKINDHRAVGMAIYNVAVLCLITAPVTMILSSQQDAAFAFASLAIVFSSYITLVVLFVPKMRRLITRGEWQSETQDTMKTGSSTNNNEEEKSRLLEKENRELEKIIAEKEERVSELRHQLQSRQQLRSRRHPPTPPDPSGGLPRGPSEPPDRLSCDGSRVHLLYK
GABA-B receptor, sequence (O88871 41-940): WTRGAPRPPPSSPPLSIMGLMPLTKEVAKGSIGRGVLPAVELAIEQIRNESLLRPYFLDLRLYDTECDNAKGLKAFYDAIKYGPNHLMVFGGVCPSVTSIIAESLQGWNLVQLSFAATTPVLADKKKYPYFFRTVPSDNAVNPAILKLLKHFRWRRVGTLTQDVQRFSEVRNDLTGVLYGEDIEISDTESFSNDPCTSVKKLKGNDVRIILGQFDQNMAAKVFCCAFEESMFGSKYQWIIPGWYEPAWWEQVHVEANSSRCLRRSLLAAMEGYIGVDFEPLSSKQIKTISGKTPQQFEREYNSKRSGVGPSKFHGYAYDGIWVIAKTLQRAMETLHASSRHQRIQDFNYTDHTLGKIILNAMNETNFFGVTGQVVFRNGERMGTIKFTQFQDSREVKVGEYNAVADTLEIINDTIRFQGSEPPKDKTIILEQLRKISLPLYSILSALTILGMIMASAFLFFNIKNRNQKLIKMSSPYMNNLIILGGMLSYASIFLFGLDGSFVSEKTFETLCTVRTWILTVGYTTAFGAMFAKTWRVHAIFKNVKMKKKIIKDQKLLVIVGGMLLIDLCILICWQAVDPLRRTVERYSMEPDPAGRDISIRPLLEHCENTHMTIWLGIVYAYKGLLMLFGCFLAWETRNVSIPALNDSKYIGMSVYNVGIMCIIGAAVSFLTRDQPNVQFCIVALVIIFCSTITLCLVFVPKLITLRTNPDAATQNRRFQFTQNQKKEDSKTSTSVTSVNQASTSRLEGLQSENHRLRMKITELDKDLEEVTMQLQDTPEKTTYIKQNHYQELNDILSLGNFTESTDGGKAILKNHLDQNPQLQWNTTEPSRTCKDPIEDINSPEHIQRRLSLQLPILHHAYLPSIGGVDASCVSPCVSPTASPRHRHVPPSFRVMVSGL
Format: biochemical
Description: Preparation of Rat Brain Membranes for Native Receptor Assays
Membranes from rat brain cortex were prepared as described in detail by Olpe et al. and stored at concentrations of 1.66 mg/mL protein at −80° C. until required. (Olpe, H.-R, et al. Eur J Pharmacol 1990; 187: 27-38).
[^35S] GTPgS Binding Assay
The composition of the assay mixtures [in a final volume of 200 μL in 96-well U-bottom plates (Greiner) was as follows: 50 mM Tris-HCl buffer, pH 7.7, 10 mM MgCl2, 0.2 mM EGTA, 2 mM CaCl2, 100 mM NaCl, 20 µM guanosine 5′-diphosphate (Sigma), 0.3 nM [^35S]GTPgS (1250 Ci/mmol (PerkinElmer)), and the test compounds at increasing concentrations (from 10 nM up to […]), […] of rat cortical membranes, and a concentration of […], that has been observed in previous experiments to correspond to the EC25, a concentration that gives 25% of the maximal response of GABA. The samples were incubated at room temperature for 60 minutes on a shaker. The incubation was stopped by rapid vacuum filtration over glass-fiber filter plates (UniFilter-96 well, GF/B membrane plates, PerkinElmer) using a 96-well plate harvester (TOMTEK© Harvester). The UniFilter plate was washed five times with ice-cold wash buffer (50 mM Tris-HCl buffer, pH 7.7, 10 mM MgCl2, and 100 mM NaCl. After filtration the plate was dried for 90 minutes at 55° C. The plates were closed on the bottom with black sealing membranes, and liquid scintillation cocktail (35 μL, Betaplate Scint, PerkinElmer) was added to each well. After sealing the top of the plate, an additional incubation step of 90 minutes at room temperature followed before measuring the plate. The amount of membrane-bound [^35S]GTPgS was measured using a 96-well plate reader (Microbeta®, PerkinElmer). Nonspecific binding was measured in the presence of unlabeled 10 μM of GTPgS (Millipore) and without GABA. Basal binding was measured in the absence of 1 μM GABA, and maximal binding was measured in the presence of GABA using 1 mM GABA concentrations.
Data analysis. The concentration-response curves of compounds of the present disclosure in the presence of EC25 of GABA-B receptor agonist were generated using the GraphPad Prism® program (GraphPad Software, San Diego, Calif.). Data was normalized using basal binding as 0% and maximal binding as 100%. The curves were fitted by nonlinear regression allowing determination of EC50 values from sigmoidal dose-response curves. Each curve was performed using triplicate sample per date point and 10 concentrations.
`Cc1cc(N2CCNC(=O)C2CCO)n2nc(C(C)c3ccc(C(F)(F)F)cc3)cc2n1` (stereo not drawn) [Example 8-13, 3-(2-hydroxyethyl)-4-(5-methyl-2-{1-[4-(trifluoromethyl)phenyl]ethyl}pyrazolo[1,5-a]pyrimidin-7-yl)piperazin-2-one] gave an EC50 of 2.55 µM. With `Cc1cc(NCC2CC(F)(F)C2)n2nc(C(C)c3ccc(C(F)(F)F)cc3)cc2n1` (stereo not drawn) [Example 8-14, N-[(3,3-difluorocyclobutyl)methyl]-5-methyl-2-{1-[4-(trifluoromethyl)phenyl]ethyl}pyrazolo[1,5-a]pyrimidin-7-amine] the EC50 was 0.593 µM. `Cc1cc(N2CCC(F)(F)C2)n2nc(C(C)c3ccc(C(F)(F)F)cc3)cc2n1` (stereo not drawn) [Example 8-15, 7-(3,3-difluoropyrrolidin-1-yl)-5-methyl-2-{1-[4-(trifluoromethyl)phenyl]ethyl}pyrazolo[1,5-a]pyrimidine] gave an EC50 of 0.57 µM. `CC(=O)N[C@@H]1CCN(c2cc(C)nc3cc(C(C)c4ccc(C(F)(F)F)cc4)nn23)C1` (stereo partly drawn) [Example 8-16, N-[(3R)-1-(5-methyl-2-{1-[4-(trifluoromethyl)phenyl]ethyl}pyrazolo[1,5-a]pyrimidin-7-yl)pyrrolidin-3-yl]acetamide] gave an EC50 of 2.18 µM. `Cc1cc(N2CCCC(F)(F)C2)n2nc(C(C)c3ccc(C(F)(F)F)cc3)cc2n1` (stereo not drawn) [Example 8-17, 7-(3,3-difluoropiperidin-1-yl)-5-methyl-2-{1-[4-(trifluoromethyl)phenyl]ethyl}pyrazolo[1,5-a]pyrimidine] was tested, and the EC50 was 0.76 µM. `Cc1cc(N2CCCCC2=O)n2nc(C(C)c3ccc(C(F)(F)F)cc3)cc2n1` (stereo not drawn) [Example 8-18, 1-(5-methyl-2-{1-[4-(trifluoromethyl)phenyl]ethyl}pyrazolo[1,5-a]pyrimidin-7-yl)piperidin-2-one] was tested, and the EC50 was 0.746 µM. Work on `Cc1cc(NC(C)(C)C)n2nc(C(C)c3ccc(C(F)(F)F)cc3)cc2n1` (stereo not drawn) [Example 8-19, N-tert-butyl-5-methyl-2-{1-[4-(trifluoromethyl)phenyl]ethyl}pyrazolo[1,5-a]pyrimidin-7-amine] yielded an EC50 of 0.274 µM. Molecule `Cc1cc(NC2CC(F)(F)C2)n2nc(C(C)c3ccc(C(F)(F)F)cc3)cc2n1` (stereo not drawn) [Example 8-20, N-(3,3-difluorocyclobutyl)-5-methyl-2-{1-[4-(trifluoromethyl)phenyl]ethyl}pyrazolo[1,5-a]pyrimidin-7-amine] has an EC50 of 0.5 µM. With `Cc1cc(N2CCC3(CC2)COC3)n2nc(C(C)c3ccc(C(F)(F)F)cc3)cc2n1` (stereo not drawn) [Example 8-21, 5-methyl-7-(2-oxa-7-azaspiro[3.5]non-7-yl)-2-{1-[4-(trifluoromethyl)phenyl]ethyl}pyrazolo[1,5-a]pyrimidine] the EC50 was 0.561 µM. With `Cc1cc(N2CCC(C(N)=O)C2)n2nc(C(C)c3ccc(C(F)(F)F)cc3)cc2n1` (stereo not drawn) [Example 8-22, 1-(5-methyl-2-{1-[4-(trifluoromethyl)phenyl]ethyl}pyrazolo[1,5-a]pyrimidin-7-yl)pyrrolidine-3-carboxamide] the EC50 was 0.771 µM. Work on `Cc1cc(N2CCCC(CO)C2)n2nc(C(C)c3ccc(Cl)cn3)cc2n1` (stereo not drawn) [Example 9-1, (1-{2-[1-(5-chloropyridin-2-yl)ethyl]-5-methylpyrazolo[1,5-a]pyrimidin-7-yl}piperidin-3-yl)methanol] yielded an EC50 of 1.54 µM. For `Cc1cc(NC2CC(F)(F)C2)n2nc(C(C)c3ccc(Cl)cn3)cc2n1` (stereo not drawn) [Example 9-2, 2-[1-(5-chloropyridin-2-yl)ethyl]-N-(3,3-difluorocyclobutyl)-5-methylpyrazolo[1,5-a]pyrimidin-7-amine], the EC50 was 1.6 µM. With `Cc1cc(N2CCC[C@H](O)C2)n2nc(C(C)c3ccc(Cl)cn3)cc2n1` (stereo partly drawn) [Example 9-3, (3S)-1-{2-[1-(5-chloropyridin-2-yl)ethyl]-5-methylpyrazolo[1,5-a]pyrimidin-7-yl}piperidin-3-ol] the EC50 was 2.02 µM. `Cc1cc(N2CCCC(F)(F)C2)n2nc(C(C)c3ccc(Cl)cn3)cc2n1` (stereo not drawn) [Example 9-4, 2-[1-(5-chloropyridin-2-yl)ethyl]-7-(3,3-difluoropiperidin-1-yl)-5-methylpyrazolo[1,5-a]pyrimidine] was tested, and the EC50 was 0.628 µM. `Cc1cc(N2CCC(F)(F)C2)n2nc(C(C)c3ccc(Cl)cn3)cc2n1` (stereo not drawn) [Example 9-5, 2-[1-(5-chloropyridin-2-yl)ethyl]-7-(3,3-difluoropyrrolidin-1-yl)-5-methylpyrazolo[1,5-a]pyrimidine] was tested, and the EC50 was 1.66 µM. `Cc1cc(NC(C)(C)C)n2nc(C(C)c3ccc(Cl)cn3)cc2n1` (stereo not drawn) [Example 9-6, N-tert-butyl-2-[1-(5-chloropyridin-2-yl)ethyl]-5-methylpyrazolo[1,5-a]pyrimidin-7-amine] gave an EC50 of 0.798 µM. With `Cc1cc(NC2(C)CC2)n2nc(C(C)c3ccc(Cl)cn3)cc2n1` (stereo not drawn) [Example 9-7, 2-[1-(5-chloropyridin-2-yl)ethyl]-5-methyl-N-(1-methylcyclopropyl)pyrazolo[1,5-a]pyrimidin-7-amine] the EC50 was 1.32 µM. Work on `Cc1cc(NC2CC(F)C2)n2nc(C(C)c3ccc(Cl)cn3)cc2n1` (stereo not drawn) [Example 9-8, 2-[1-(5-chloropyridin-2-yl)ethyl]-N-(3-fluorocyclobutyl)-5-methylpyrazolo[1,5-a]pyrimidin-7-amine] yielded an EC50 of 9.3 µM. `Cc1cc(N2CC3(CCOCC3)C2)n2nc(C(C)c3ccc(Cl)cn3)cc2n1` (stereo not drawn) [Example 9-9, 2-[1-(5-chloropyridin-2-yl)ethyl]-5-methyl-7-(7-oxa-2-azaspiro[3.5]non-2-yl)pyrazolo[1,5-a]pyrimidine] was tested, and the EC50 was greater than 10 µM. In the case of `CC(=O)N[C@@H]1CCN(c2cc(C)nc3cc(C(C)c4ccc(Cl)cn4)nn23)C1` (stereo partly drawn) [Example 9-10, N-[(3R)-1-{2-[1-(5-chloropyridin-2-yl)ethyl]-5-methylpyrazolo[1,5-a]pyrimidin-7-yl}pyrrolidin-3-yl]acetamide], the EC50 is reported as greater than 10 µM. `CC(=O)N[C@H]1CCN(c2cc(C)nc3cc(C(C)c4ccc(Cl)cn4)nn23)C1` (stereo partly drawn) [Example 9-11, N-[(3S)-1-{2-[1-(5-chloropyridin-2-yl)ethyl]-5-methylpyrazolo[1,5-a]pyrimidin-7-yl}pyrrolidin-3-yl]acetamide] showed an EC50 greater than 10 µM. Molecule `Cc1cc(N2CC[C@@H](NS(C)(=O)=O)C2)n2nc(Cc3ccc(Cl)cc3)cc2n1` [Example 10-1, N-{(3R)-1-[2-(4-chlorobenzyl)-5-methylpyrazolo[1,5-a]pyrimidin-7-yl]pyrrolidin-3-yl}methanesulfonamide] has an EC50 greater than 10 µM. In the case of `Cc1cc(N2CCC[C@H](NS(C)(=O)=O)C2)n2nc(Cc3ccc(Cl)cc3)cc2n1` [Example 11-1], the EC50 is reported as 3.51 µM. For `Cc1cc(N2CCCCC2CCO)n2nc(Cc3cccc(Cl)c3)cc2n1` (stereo not drawn) [Example 12-1, 2-{1-[2-(3-chlorobenzyl)-5-methylpyrazolo[1,5-a]pyrimidin-7-yl]piperidin-2-yl}ethanol], the EC50 was 5.67 µM.
